The text below walks through data of US20240147995A1, “INSECT NEUROPEPTIDES 5” (Solasta Bio Limited, priority 2022, published 2024).

One test concerns Plutella xylostella. The test is described as follows: Leaf dip assay testing against Plutella xylostella (mortality). Format: in vivo. Conditions: unformulated SB-P-70; FIG. 6, after 96 hours; compared to negative control vehicle and Chlorantraniliprole. On the procedure: The assay was carried out based on IRAC susceptibility test method 019 (https://irac-online.org/methods/aphids-adultnymphs/). Fill a small 4 cm wide 3 cm high dish with a 1% agar treatment solution of the active chemical or control (ensuring 1 cm gap between the agar and the lid) and leave to set. Dip a 2.5 cm leaf disc into 3 ml of treatment solution allowing the treatment to coat the leaf. Leave the disc to dry for 1 hour and place onto the set agar. Place insects (Plutella xylostella) onto each of the leaf discs. Each unit is sealed with a close-fitting, ventilated lid. Place the agar dishes in a small plastic tray lined with moist tissue paper and ensure the water trays in the bottom of the incubator are filled with clean water and place within the incubator. An assessment of mortality is made at 72, 96 and 120 hours. Leaf dip assays were performed with SB-P-70, and compared to a negative control vehicle and a current commercial insecticide Chlorantraniliprole. The activity of SB-P-70 is shown in FIG. 6; SB-P-70 has good activity whilst being eco-friendly and targeted to specific pests unlike broad spectrum chemical insecticides such as Chlorantraniliprole.

Another test relates to Spodoptera frugiperda. The test is described as follows: Lepidoptera artificial diet assay against Spodoptera frugiperda (pupation and mortality). The class given is in vivo. Conditions: unformulated SB-P-70; 1×10^−4 M in diet; L1 larvae; FIG. 8, after 168 hours; compared to negative control vehicle and DDT. From the text: Frontier Lepidoptera artificial diet was made up by preparing agar at 1% and then mixing it with artificial diet powder. Peptide solution was aliquoted in 10 cells and diet poured straight onto it. The final concentration of the peptide was 1×10^−4 M, and each peptide was aliquoted in 10 cells. Once the diet solidified and cooled down, one L1 larvae was infested in each cell. The trays were sealed with heat and let larva were allowed to develop for 168 hrs. Finally, pupation and mortality were scored for. Lepidoptera artificial diet assays were performed with SB-P-70, and compared to a negative control vehicle and the insecticide dichlorodiphenyltrichloroethane (DDT).

As for “[Hy]-KVKFSAWG-[NH2] (H-KVKFSAWG-NH2) [SB-P-70]”, the “activity against Plutella xylostella (mortality, leaf dip assay)” value in the test on Plutella xylostella was “good activity”. The “activity against Spodoptera frugiperda (pupation and mortality, artificial diet assay)” value with Spodoptera frugiperda is “much higher activity”.
